Data taken from publication PMC7696216, “Bi-Functional Alginate Oligosaccharide–Polymyxin Conjugates for Improved Treatment of Multidrug-Resistant Gram-Negative Bacterial Infections” (Pharmaceutics, 2020).
Read-outs that look alike come from different tables or passages of the source.

How the values were obtained:
P. aeruginosa MDR 301 [1] = experiment: Bacterial growth curves (48 h); assay type: cell-based, Pseudomonas aeruginosa; conditions: absorbance 600 nm hourly for 48 h, n = 3
Text: Results were expressed as mean values (n = 3).

A. baumannii 7789 [2] = assay type: cell-based, Acinetobacter baumannii
Experimental: (§1) The minimum inhibitory concentration (MIC) of colistin (as sulphate salt) and polymyxin B and their conjugates was determined using the broth microdilution method in MH broth in accordance with standard guidelines. Test organisms were suspended in MH broth (100 µL, 5 × 10^5 colony forming units (CFU)/mL) and incubated in 96-well microtitre plates in serial two-fold dilutions of the test compounds. […] Results were expressed as mode (n = 3). […] Selective activities of the polymyxins and OligoG–polymyxin conjugates were calculated as follows:Selectivity index (SI) = IC50 (μg/mL)/MIC (μg/mL).
(§2) In addition, alginate oligomer–colistin conjugates (3 mg/mL) were incubated in PBS at pH 7 containing bacterial alginate lyase (1 and 10 U/mL) at 37 °C for 24 h, before preparing microtitre plates as described above.
(§3) To study the antimicrobial efficacy of test compounds under more clinically relevant conditions, the MIC protocol was performed using AS medium instead of MH broth. The plates were incubated with resazurin as described above.

P. aeruginosa R22 [3] = assay type: cell-based, Pseudomonas aeruginosa; conditions: resazurin read-out
Experimental: as §1
(§4) To account for turbidity caused by mucin, resazurin dye solution (30 µL, 0.01% w/v in dH2O) was added to each well and incubated for a further 3 h at 37 °C. Colour changes were observed and recorded.

P. aeruginosa MDR 301 [4] = assay type: cell-based, Pseudomonas aeruginosa
Experimental: as §1, §2, §3

K. pneumoniae IR25 = assay type: cell-based, Klebsiella pneumoniae; conditions: resazurin read-out
Experimental: as §1, §4

A. baumannii 7789 [5] = experiment: Time-to-kill (TTK) in PK–PD model; assay type: cell-based, Acinetobacter baumannii; conditions: 0.25 µg/mL colistin base (colistin sulphate at MIC; OligoG–E–colistin at 2 × MIC), n = 3
Experimental: A modified experimental set-up was used to investigate the concentration- and time-dependent antimicrobial activity of test compounds using a TTK assay (48 h). […] The OC contained MH broth inoculated with A. baumannii 7789 (5 × 10^5 CFU/mL). Samples were collected from the OC (0, 2, 4, 6, 24 and 48 h) and colony counts (CFU/mL) determined using drop counts. Treatments were considered bactericidal if the reduction in viable bacterial counts was ≥3 log10 CFU/mL (equivalent to 99.9% of the initial inoculum) and bacteriostatic if the decrease was <3 log10 CFU/mL [33, 34]. Growth (no test compounds) and sterility (no bacteria) controls were also performed.

E. coli 5702 = experiment: MIC, broth microdilution; assay type: cell-based, Escherichia coli
Experimental: as §1, §3

E. coli AIM-1 = experiment: MIC, broth microdilution; assay type: cell-based, Escherichia coli
Experimental: as §1, §2

E. coli IR57 = assay type: cell-based, Escherichia coli
Experimental: as §1, §4, §3

P. aeruginosa NH57388A = experiment: MIC, broth microdilution; assay type: cell-based, Pseudomonas aeruginosa
Experimental: as §1, §3

[6] = Two-compartment static dialysis bag model, diffusion; assay type: physicochemical; conditions: IC 10 mg/mL colistin base in PBS (5 mL), OC PBS (15 mL), 37 °C, 70 rpm, BCA assay, n = 3
Experimental: A two-compartment static dialysis bag model (adapted from Azzopardi et al.) was used to study the PK–PD profile of OligoG–colistin conjugates. First, the ability of the dialysis membrane to control diffusion of test compounds was assessed. […] The aseptically sealed beaker was incubated (37 °C, 70 rpm) for 48 h. Samples were collected at various time points from each compartment and stored at −20 °C prior to analysis of colistin content by BCA assay.

P. aeruginosa R22 [7] = experiment: Biofilm formation assay (CLSM, COMSTAT); assay type: cell-based, Pseudomonas aeruginosa; conditions: 24 h
Experimental: To analyse the effect of test compounds on biofilm formation, solutions of test compounds in MH broth were inoculated (1:10) with P. aeruginosa R22 (standardised to 10^7 CFU/mL) in a Greiner glass-bottomed optical 96-well plate. The plate was then wrapped in parafilm and incubated (37 °C, 20 rpm) for 24 h. The supernatant was carefully removed and replaced with 10% v/v LIVE/DEAD stain in PBS prior to imaging. CLSM of Syto 9 (λex/λem maximum, 480/500 nm) and propidium iodide (λex/λem maximum, 490/635 nm) was performed using a Leica SP5 confocal microscope with ×63 lens (under oil) and a step size of 0.79 µm. Z-stack CLSM images were analysed using COMSTAT image analysis software and results were expressed as mean ± SEM (n = 15).

[8] = cited from earlier work
Experimental: In a clinical setting, binding of colistin to sputum biomolecules (e.g., mucin) in the airways could negatively impact antibiotic effectiveness and availability. […] A four-fold increase in the MIC of colistin was also reported when the assay was conducted in AS medium instead of MH broth, thought to be caused by bacterial growth disruption, structural modifications of lipopolysaccharides or direct colistin–mucin interactions. Alt ...

A. baumannii MDR ACB = assay type: cell-based, Acinetobacter baumannii; conditions: resazurin read-out
Experimental: as §1, §4

[9] = AS (artificial sputum) medium, resazurin read-out
[10] = MH broth (Table S7 comparison with AS medium)
[11] = alginate lyase in MH broth, 0 U/mL
[12] = alginate lyase in MH broth, 1 U/mL
[13] = alginate lyase in MH broth, 10 U/mL
[14] = pre-incubation with alginate lyase 0 U/mL (3 mg/mL in PBS pH 7, 37 °C, 24 h), then MIC in MH broth
[15] = pre-incubation with alginate lyase 1 U/mL (3 mg/mL in PBS pH 7, 37 °C, 24 h), then MIC in MH broth
[16] = pre-incubation with alginate lyase 10 U/mL (3 mg/mL in PBS pH 7, 37 °C, 24 h), then MIC in MH broth
[17] = MH broth + porcine stomach (type II) mucin 0.2% w/v
[18] = MH broth + porcine stomach (type II) mucin 2% w/v

For colistin sulphate, the “concentration required for growth inhibition (up to >48 h)” value (P. aeruginosa MDR 301 [1]) was no less than 8 × MIC, the MIC (A. baumannii 7789 [2]; [9]) was 1 μg/mL Drug Base and the MIC (A. baumannii 7789 [2]; [10]) was 0.25 μg/mL Drug Base. For the same substance, the MIC (A. baumannii 7789 [2]; [11]) was 0.002 μg/mL Drug Base, the MIC (A. baumannii 7789 [2]; [12]) was 0.004 μg/mL Drug Base and the MIC (A. baumannii 7789 [2]; [13]) was 0.004 μg/mL Drug Base. For the same substance, the MIC (A. baumannii 7789 [2]; [14]) was 0.002 μg/mL Drug Base, the MIC (A. baumannii 7789 [2]; [15]) was 0.002 μg/mL Drug Base and the MIC (A. baumannii 7789 [2]; [16]) was 0.002 μg/mL Drug Base. The MIC (P. aeruginosa R22 [3]; [17]) was 2 μg/mL Drug Base, the MIC (P. aeruginosa R22 [3]; [18]) was 16 μg/mL Drug Base and the MIC (P. aeruginosa R22 [3]; MH broth, mucin 0%) was 0.5 μg/mL Drug Base. The MIC (P. aeruginosa MDR 301 [4]; [9]) was 2 μg/mL Drug Base, the MIC (P. aeruginosa MDR 301 [4]; [10]) was 0.5 μg/mL Drug Base and the MIC (P. aeruginosa MDR 301 [4]; [11]) was 0.063 μg/mL Drug Base. For the same substance, the MIC (P. aeruginosa MDR 301 [4]; [12]) was 0.063 μg/mL Drug Base, the MIC (P. aeruginosa MDR 301 [4]; [13]) was 0.25 μg/mL Drug Base and the MIC (P. aeruginosa MDR 301 [4]; [14]) was 0.063 μg/mL Drug Base. The MIC (P. aeruginosa MDR 301 [4]; [15]) was 0.063 μg/mL Drug Base, the MIC (P. aeruginosa MDR 301 [4]; [16]) was 0.125 μg/mL Drug Base and the MIC (K. pneumoniae IR25; [17]) was 1 μg/mL Drug Base. For the same substance, the MIC (K. pneumoniae IR25; [18]) was 64 μg/mL Drug Base, the “reduction in viable bacterial counts after 4 h” value (A. baumannii 7789 [5]) was less than 3 log10 CFU/mL and the MIC (E. coli 5702; [9]) was 0.125 μg/mL Drug Base. The MIC (E. coli 5702; [10]) was 0.031 μg/mL Drug Base, the MIC (E. coli AIM-1; [11]) was 0.00006 μg/mL Drug Base and the MIC (E. coli AIM-1; [12]) was 0.00006 μg/mL Drug Base. It also gave an MIC (E. coli AIM-1; [13]) of 0.0002 μg/mL Drug Base, an MIC (E. coli AIM-1; broth microdilution, MH broth, 5 × 10^5 CFU/mL, 16–20 h, mode (n = 3)) of less than 0.008 μg/mL Drug Base and an MIC (E. coli AIM-1; [14]) of 0.00006 μg/mL Drug Base. The MIC (E. coli AIM-1; [15]) was 0.001 μg/mL Drug Base, the MIC (E. coli AIM-1; [16]) was 0.0002 μg/mL Drug Base and the MIC (E. coli IR57; [9]) was 0.125 μg/mL Drug Base. It also gave an MIC (E. coli IR57; [10]) of 0.125 μg/mL Drug Base, an MIC (E. coli IR57; MH broth + porcine stomach (type II) mucin 0.2% w/v, resazurin read-out) of 1 μg/mL Drug Base and an MIC (E. coli IR57; MH broth + porcine stomach (type II) mucin 2% w/v, resazurin read-out) of 2 μg/mL Drug Base. The MIC (E. coli IR57; MH broth, mucin 0%, resazurin read-out) was 0.125 μg/mL Drug Base, the MIC (P. aeruginosa NH57388A; [9]) was 1 μg/mL Drug Base and the MIC (P. aeruginosa NH57388A; [10]) was 0.25 μg/mL Drug Base. The “time at which 1 mg/mL in the OC was reached” value [6] was 2.83 h, the “biofilm biomass compared to untreated control” value (P. aeruginosa R22 [7]; 2 × MIC (colistin sulphate up to 2 × MIC), n = 15) was “no significant change” and the biofilm roughness (P. aeruginosa R22 [7]; conjugates ≥MIC, colistin sulphate MIC, n = 15, p < 0.05) was “significantly increased”. The “increase in MIC values when mucin was added to the bacterial culture medium” value [8] was greater than 100 fold, the MIC (A. baumannii MDR ACB; [17]) was 1 μg/mL Drug Base and the MIC (A. baumannii MDR ACB; [18]) was 16 μg/mL Drug Base. For the same substance, the MIC (A. baumannii MDR ACB; MH broth, mucin 0%) was 0.5 μg/mL Drug Base.
